Assay results reported in PubChem BioAssay (NCI).
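Tested at 5 concentrations; 48 h exposure; 96-well plates; endpoints linearly interpolated, else capped at highest concentration. TGI: total growth inhibition.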

Legend:
Assay in all cases: NCI tumour cell line growth inhibition, 48 h
[1] = tested on: A549 NSCLC
[2] = tested on: ACHN renal
[3] = tested on: CAKI-1 renal
[4] = tested on: CCRF-CEM leukemia
[5] = tested on: COLO 205 colon
[6] = tested on: DMS 114 small cell lung
[7] = tested on: EKVX NSCLC
[8] = tested on: HCC-2998 colon
[9] = tested on: HCT-116 colon
[10] = tested on: HL-60(TB) leukemia
[11] = tested on: HOP-62 NSCLC
[12] = tested on: HOP-92 NSCLC
[13] = tested on: HT29 colon
[14] = tested on: IGROV1 ovarian
[15] = tested on: KM12 colon
[16] = tested on: KM20L2 colon
[17] = tested on: LXFL 529 NSCLC
[18] = tested on: M14 melanoma
[19] = tested on: M19-MEL melanoma
[20] = tested on: MOLT-4 leukemia
[21] = tested on: NCI-H226 lung
[22] = tested on: NCI-H23 lung
[23] = tested on: NCI-H460 lung
[24] = tested on: OVCAR-3 ovarian
[25] = tested on: OVCAR-8 ovarian
[26] = tested on: RPMI-8226 leukemia
[27] = tested on: RXF 393 renal
[28] = tested on: SF-268 CNS
[29] = tested on: SF-295 CNS
[30] = tested on: SF-539 CNS
[31] = tested on: SK-MEL-2 melanoma
[32] = tested on: SK-MEL-28 melanoma
[33] = tested on: SK-MEL-5 melanoma
[34] = tested on: SNB-19 CNS
[35] = tested on: SNB-75 CNS
[36] = tested on: SW-620 colon
[37] = tested on: TK-10 renal
[38] = tested on: UACC-257 melanoma
[39] = tested on: UACC-62 melanoma
[40] = tested on: UO-31 renal
[41] = tested on: 786-0 renal
[42] = tested on: DLD-1 colon
[43] = tested on: DMS 273 small cell lung
[44] = tested on: K-562 leukemia
[45] = tested on: LOX IMVI melanoma
[46] = tested on: MALME-3M melanoma
[47] = tested on: NCI-H522 lung
[48] = tested on: OVCAR-5 ovarian
[49] = tested on: SK-OV-3 ovarian
[50] = tested on: SNB-78 CNS
[51] = tested on: U251 CNS
[52] = tested on: XF 498 CNS
[53] = tested on: A498 renal
[54] = tested on: HCT-15 colon
[55] = tested on: SN12C renal
[56] = tested on: SR leukemia
[57] = tested on: OVCAR-4 ovarian

Measured: TGI

CN=c1ssc(=S)n1C(C)C
9.24 µM: [32]
11.8 µM: [4]
53.5 µM: [38]
43.7 µM: [11]
27.8 µM: [8]
67.1 µM: [12]
88.2 µM: [3]
80.7 µM: [22]
22.4 µM: [27]
14.7 µM: [10]
35 µM: [24]
79 µM: [18]
31.1 µM: [39]
95.5 µM: [2]
39.4 µM: [5]
20.3 µM: [6]
28.6 µM: [19]
46.4 µM: [14]
20.6 µM: [36]
19.9 µM: [17]
86.6 µM: [30]
> 100 µM: [1] | [7] | [9] | [15] | [21] | [23] | [25] | [28] | [29] | [31] | [33] | [34] | [37] | [40]
51.7 µM: [20]
41.4 µM: [16]
16.2 µM: [13]
60.3 µM: [26]
52.3 µM: [35]

COC(=O)N/N=C(\C)CC(=O)Nc1cccc([N+](=O)[O-])c1
> 100 µM: [41] | [1] | [4] | [5] | [42] | [6] | [43] | [7] | [8] | [9] | [10] | [11] | [12] | [13] | [14] | [44] | [15] | [16] | [45] | [17] | [18] | [19] | [46] | [20] | [21] | [22] | [23] | [47] | [24] | [48] | [25] | [26] | [27] | [28] | [29] | [30] | [31] | [32] | [33] | [49] | [35] | [50] | [36] | [37] | [51] | [38] | [39] | [40] | [52]

CN/N=C(\C(=O)Nc1ccc(C(F)(F)F)cc1[N+](=O)[O-])C(c1cnc2ccc([N+](=O)[O-])cc2n1)[N+](=O)[O-] (centres undefined)
84.8 µM: [8]
> 100 µM: [41] | [53] | [1] | [2] | [3] | [4] | [5] | [42] | [6] | [9] | [54] | [11] | [12] | [13] | [14] | [44] | [15] | [45] | [17] | [18] | [19] | [46] | [20] | [22] | [23] | [24] | [25] | [26] | [27] | [28] | [29] | [30] | [31] | [32] | [33] | [49] | [55] | [34] | [50] | [56] | [36] | [51] | [38] | [40]
78.5 µM: [21]
79.5 µM: [48]
66.3 µM: [47]
65.9 µM: [7]

Oc1ccc(C2Oc3cc(O)cc4c3C2c2cc(O)cc3c2C(c2cc(O)cc5c2C4C(c2ccc(O)cc2)O5)C(c2ccc(O)cc2)O3)cc1 (centres undefined)
22.8 µM: [25] | [30]
21.3 µM: [12]
10.4 µM: [57]
17.3 µM: [21]
15.5 µM: [35]
14.1 µM: [10]
> 25 µM: [41] | [53] | [1] | [2] | [3] | [4] | [5] | [42] | [6] | [43] | [7] | [8] | [9] | [54] | [11] | [44] | [15] | [16] | [45] | [17] | [18] | [19] | [20] | [23] | [47] | [24] | [48] | [28] | [33] | [55] | [34] | [56] | [36] | [37] | [51] | [38] | [39] | [40]
24.3 µM: [26]
24.5 µM: [52]
20.7 µM: [46]
22.9 µM: [22]
12.3 µM: [31]
16.9 µM: [32]
